Common to all, as to test: E. coli hemG growth inhibition by herbicide, AtPPO1 variant
Common to all, as to format: cell-based
Holding throughout (conditions): read-out: percentage growth inhibition

One assay addresses T1, AtPPO1 E212Y (Arabidopsis thaliana, UniProt P55826, E212Y).
T1 construct: expressed in transfected cells; host or cells: E. coli BL21(DE3) hemG (hemG replaced by CmR), pET24a plasmid
T1 sequence (P55826 35-537 E212Y): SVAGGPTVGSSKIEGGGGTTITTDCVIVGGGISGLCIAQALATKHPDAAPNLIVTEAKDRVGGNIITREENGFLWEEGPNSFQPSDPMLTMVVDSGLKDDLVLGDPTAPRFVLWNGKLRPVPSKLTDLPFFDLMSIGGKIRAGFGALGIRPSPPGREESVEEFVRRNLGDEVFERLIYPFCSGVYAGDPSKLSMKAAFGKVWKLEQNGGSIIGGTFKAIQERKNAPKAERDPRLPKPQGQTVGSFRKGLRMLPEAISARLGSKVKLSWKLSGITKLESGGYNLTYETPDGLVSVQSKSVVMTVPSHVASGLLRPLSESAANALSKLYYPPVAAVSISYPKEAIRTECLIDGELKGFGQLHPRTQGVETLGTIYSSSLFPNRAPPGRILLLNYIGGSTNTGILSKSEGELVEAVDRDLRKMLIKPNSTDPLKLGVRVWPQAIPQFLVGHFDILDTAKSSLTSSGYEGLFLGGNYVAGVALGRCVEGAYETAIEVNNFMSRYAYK
An outline of the steps: (§1)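 Read-out is OD600 at 24 h post inoculation, converted to percent growth inhibition relative to DMSO. The hemG-deleted BL21(DE3) host relied on the plasmid-borne AtPPO1 variant, induced with 0.1 mM IPTG, with 6.25 ppm herbicide 0 or E or 0.78 ppm herbicide B present at 37° C.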

The target in another assay is T2, AtPPO1 Q272H (Arabidopsis thaliana, UniProt P55826, Q272H).
T2 construct: expressed in transfected cells; host or cells: E. coli BL21(DE3) hemG (hemG replaced by CmR), pET24a plasmid
T2 sequence (P55826 35-537 Q272H): T1 sequence (P55826 35-537 E212Y) with Y178E, Q238H
An outline of the steps: as §1

The target of a further assay is T3, AtPPO1 L424V (Arabidopsis thaliana, UniProt P55826, L424V).
T3 construct: expressed in transfected cells; host or cells: E. coli BL21(DE3) hemG (pET24a, T7 promoter)
T3 sequence (P55826 35-537 L424V): T1 sequence (P55826 35-537 E212Y) with Y178E, L390V
An outline of the steps: as §1

Another assay addresses T4, AtPPO1 T431R (Arabidopsis thaliana, UniProt P55826, T431R).
T4 construct: expressed in transfected cells; host or cells: E. coli BL21(DE3) hemG (pET24a, T7 promoter)
T4 sequence (P55826 35-537 T431R): T1 sequence (P55826 35-537 E212Y) with Y178E, T397R
An outline of the steps:
as §1

Molecules are shown by their SMILES. Substitutions are numbered along the chain they refer to.

Consider `C#CCN1C(=O)C(F)(F)Oc2cc(F)c(-n3c(=O)n(C)c(=S)n(C)c3=O)cc21` [Herbicide B, trifludimoxazin], for which the inhibition (as a rule, the percentage by which the read-out fell short of the control) at 0.78 ppm on AtPPO1 E212Y is 25%; on AtPPO1 Q272H it was 27%; on AtPPO1 L424V, 19%; on AtPPO1 T431R, 25%.

As for `CCOC(=O)[C@]1(C)CC(c2cc(-n3c(=O)n(C)c(=S)n(C)c3=O)c(F)cc2Cl)=NO1` [Herbicide D, ethyl (5S)-3-[2-chloro-5-(3,5-dimethyl-2,6-dioxo-4-thioxo-1,3,5-triazinan-1-yl)-4-fluoro-phenyl]-5-methyl-4H-isoxazole-5-carboxylate], the inhibition at 6.25 ppm at AtPPO1 E212Y amounted to 27%; on AtPPO1 Q272H it was 28%; at AtPPO1 L424V it was 33%; on AtPPO1 T431R it was 28%.

Turning to `CC(C)N(C)S(=O)(=O)NC(=O)c1cc(-n2c(=O)cc(C(F)(F)F)n(C)c2=O)c(F)cc1Cl` [Herbicide E, saflufenacil], the inhibition at 6.25 ppm on AtPPO1 E212Y stood at 65%; on AtPPO1 Q272H it was 64%; at AtPPO1 L424V, 66%; on AtPPO1 T431R, 56%.

For the origin of these results see US20260297542A1, “HERBICIDE RESISTANT PLANTS” (SYNGENTA CROP PROTECTION AG, priority 2023, published 2026).
